Test results as given in patent publication EP0605261B1, “Use of a flavone derivative as taste modifier and a method of modifying taste” (SAN-EI GEN F.F.I., INC., priority 1992, dated 1994).

Tests used:
Assay type in all cases: in vivo
[1] = Sensory test (limiting method): enhancing the sourness of acid sugar solution; set-up: key: (equivalent citric acid content / citric acid content with flavone) × 100; details: citric acid 1.000 (g), flavone derivative (I) 0.00001 (g), 8 panellers; for Value of enhancing the sourness Ascending system: ascending system (from low concentration); for Value of enhancing the sourness Descending system: descending system (from high concentration)
Description: Compounds 1 to 11 of the flavone derivative (I) were used as a taste modifier to prepare acid sugar solution having compositions as follows:
As a control, 21 types of acid sugar solutions are used. In the control, the flavone derivative (I) is removed from the above composition and the content of citric acid is varied from 1.000 g to 1.500 g by 0.025 g.
Sensory tests were carried out by 8 trained panellers in accordance with a limiting method described in the Hand Book of Sensory evaluation, edited by Research Committee of sensory evaluation, Union of Japanese Scientists and Engineers, p.398 (1973) in use of acid sugar solutions containing respective flavone derivatives (I) and another acid sugar solutions having a various content of citric acid.
As for the content of citric acid, two types sensory tests were conducted, one was an ascending system (testing from solution with low concentration) and another was a descending system (testing from solution with high concentration).
The sensory evaluation was made by a value of enhancing the sourness. The value of enhancing the sourness was calculated by the following formula based on the content of citric acid in acid sugar solutions with varied concentration of citric acid, which has an equivalent stimulation with an acid sugar solution containing the flavone derivative (I) Value of enhancing the sourness = (content of citric acid in acid sugar solution sensed as an equivalent stimulation/content of citric acid in acid sugar solution containing the flavone derivative (I)) x 100 [formula]

[2] = Sensory test: savor (hard candy); details: hard candy with Aspartame; 0.0001 w/w%; 10 panellers
Description: Compound 10 of the flavone derivative (I) was used as a taste modifier, and 22.5 w/w% thick malt syrup of reducing maltose, 22.5 w/w% reducing starch saccharide and 0.08 w/w% of Aspartame were used as sweetening agents. In accordance with a general method, hard candy containing 0.0001 w/w% of the flavone derivative (I) and flavone derivative (I) free hard candy were prepared. Sensory tests for the savor were conducted by 10 panellers comprised of 6 males and 4 females at the age from 20 to 40.

[3] = Sensory test: stimulative smell associated with acetic acid (mayonnaise); details: 0.001 mg of Compound 8 added, 9 panellers
Description: Compound 8 of the flavone derivative (I) was used as a taste modifier. First, sugar, sodium glutamate and carrageenan were dissolved in water, followed by adding raw vinegar, salt and yolk. Then, corn salad oil was added portionwise while stirring, and emulsified by the use of colloid mill, thereby preparing mayonnaise as a control. Alternatively, flavone derivative (I)-containing mayonnaise was prepared by adding 0.001 mg of Compound 8 to mayonnaise that was similarly prepared.
Sensory tests for obtained mayonnaise were conducted by 9 panellers comprised of 6 males and 3 females.

[4] = Sensory test: enhancing the sourness (refreshing drink); details: 0.0002 (g) Compound 4, vs control, 8 panellers
Description: Compound 4 of the flavone derivative (I) was used as a taste modifier. Raw materials described below were mixed and stirred to dissolve. The solution was heated up to 93°C, immediately transmitted to a bottle and sealed. Then, it was cooled in water, thereby preparing refreshing drink having compositions as follows. A control was prepared by eliminating the compound 4 from the raw materials.
Sensory tests of obtained refreshing drink were carried out by 8 panellers.

[5] = Sensory test: sweetness and savor (sponge cake); details: 22 w/w% white sugar, 0.0001 w/w%, 10 panellers
Description: Compound 4 of the flavone derivative (I) was used as a taste modifier and 22 w/w% of white sugar was used as a sweetening agent. In accordance with a general method, sponge cake containing 0.0001 w/w% of the flavone derivative (I) and flavone derivative (I) free sponge cake were prepared. Sensory tests for the sweetness and the savor were conducted by 10 panellers comprised of 6 males and 4 females at the age from 20 to 40.

[6] = Five points evaluation test: saltiness and savor modifying effect (toothpaste containing salt); details: average points of 5 panellers (2: no changes)
Description: Compound 7 of the flavone derivative (I) was used as a taste modifier. To commercially available toothpaste (containing salt), the flavone derivative (I) was added in the amount of 1, 0.1 and 0.01 ppm respectively to prepare samples. Sensory tests were carried out for modifying effects of the saltiness and the savor of toothpaste. Flavone derivative (I) free toothpaste was used as a standard substance.
The sensory tests were conducted by 5 trained panellers to examine saltiness modifying effect (so called saltiness adapting effect) and savor modifying effect.
(§1) Each sample solution was evaluated assuming that the standard solution has the point of 2.

[7] = Sensory test: savor (boiled fish paste); details: 1.5 w/w% glycine, 0.0001 w/w%, 10 panellers
Description: Compound 7 of the flavone derivative (I) was used as a taste modifier. In accordance with a general method, boiled fish paste containing 0.0001 w/w% of the flavone derivative (I) and flavone derivative (I) free boiled fish paste were prepared in use of 1.5 w/w% glycine. Sensory tests for the savor were conducted by 10 panellers comprised of 6 males and 4 females at the age from 20 to 40.

[8] = Sensory test: stimulative smell associated with acetic acid and viscosity (toothpaste with karaya gum); details: 0.0000001 part by weight of Compound 3 to 1 part, 9 panellers
Description: Sorbitol was heated to 70°C, followed by adding sodium saccharine and silica slowly thereto and by stirring well. Then, water previously heated to 70°C, karaya gum, sodium lauryl sulfate and sodium hydroxide were added sequentially while stirring. Finally, flavor was added thereto to prepare toothpaste as a control. Alternatively, flavone derivative (I)-containing toothpaste was prepared by adding 0.0000001 part by weight of Compound 3 of the flavone derivative (I) to 1 part by weight of similarly prepared toothpaste.
Sensory tests for obtained toothpaste were conducted by 9 panellers comprised of 6 males and 3 females.

[9] = Five points evaluation test: saltiness and brackish taste modifying effect, salt / sodium L-glutamate solution; details: average points of 5 panellers (2: no changes); for Saltiness Modifying Effect: Salt
Description: Compound 3 of the flavone derivative (I) was used as a taste modifier. […] Alternatively, sample solutions were prepared by adding 1, 0.1, 0.01 ppm of Compound 3 to the standard solutions, respectively.
Sensory tests were conducted by 5 trained panellers to examine saltiness modifying effect (so called saltiness adapting effect) and brackish taste modifying effect.
as §1

[10] = Sensory test: sweetness and savor (ice cream); details: 0.00001 w/w%, 10 panellers
Description: Compound 2 of the flavone derivative (I) was used as a taste modifier. Ice cream containing 5 w/w% of sugar, 12 w/w% of fructose condensed milk and 10 w/w% of thick malt syrup as sweetening agents was used as a control. The control and ice cream containing 0.00001 w/w% of the flavone derivative (I) were made by a general method. Sensory tests for the sweetness and the savor were conducted by 10 trained panellers comprised of 6 males and 4 females at the age from 20 to 40.

## COc1ccc(-c2cc(=O)c3c(O)c(OC)c(OC)c(OC)c3o2)cc1OC [Compound 10, 5-hydroxy-3',4',6,7,8-pentamethoxyflavone]
[1]
  Value of enhancing the sourness Ascending system: 120
  Value of enhancing the sourness Descending system: 123
[2]
  the savor, as sensed by all the panellers: better than that of the control

## COc1ccc(-c2cc(=O)c3c(OC)cc(OC)cc3o2)cc1 [Compound 8, 4',5,7-trimethoxyflavone]
[3]
  Stimulative smell: Those who sensed difference exists: 7 number of people
  Stimulative smell: Those who sensed no difference: 2 number of people
[1]
  Value of enhancing the sourness Ascending system: 118
  Value of enhancing the sourness Descending system: 120

## COc1ccc(-c2cc(=O)c3c(OC)cc(OC)c(OC)c3o2)cc1OC [Compound 4, 3',4',5,7,8-pentamethoxyflavone]
[1]
  Value of enhancing the sourness Ascending system: 117
  Value of enhancing the sourness Descending system: 119
[4]
  quality of taste: significantly improved
  taste of fruit juice and the sourness: stronger than the control
[5]
  the sweetness and the savor, as sensed by all the panellers: better than that of the control

## COc1ccc(-c2oc3c(OC)c(OC)cc(OC)c3c(=O)c2OC)cc1OC [Compound 7, 3,3',4',5,7,8-hexamethoxyflavone]
[1]
  Value of enhancing the sourness Ascending system: 116
  Value of enhancing the sourness Descending system: 119
[6]; 0.01 ppm
  Saltiness and Savor Modifying Effect: Saltiness: 2.2
  Saltiness and Savor Modifying Effect: Savor: 2.2
[6]; 0.10 ppm
  Saltiness and Savor Modifying Effect: Saltiness: 2.6
  Saltiness and Savor Modifying Effect: Savor: 2.4
[6]; 1.00 ppm
  Saltiness and Savor Modifying Effect: Saltiness: 3.4
  Saltiness and Savor Modifying Effect: Savor: 3.0
[7]
  the savor, as sensed by all the panellers: better than that of the control

## COc1ccc(-c2cc(=O)c3c(OC)c(OC)c(OC)c(OC)c3o2)cc1 [Compound 3, 4',5,6,7,8-pentamethoxyflavone]
[8]
  Stimulative smell: Those who sensed no difference: 1 number of people
  Stimulative smell: Those who sensed the flavone derivative (I) additive is reduced: 8 number of people
[1]
  Value of enhancing the sourness Ascending system: 120
  Value of enhancing the sourness Descending system: 123
[9]; 0.01 ppm, Salt 1 %
  Brackish Taste Modifying Effect: 3.6
[9]; 0.01 ppm, Salt 3 %
  Brackish Taste Modifying Effect: 3.6
[9]; 0.01 ppm, Salt 5 %
  Brackish Taste Modifying Effect: 3.4
[9]; 0.01 ppm, Salt 10 %
  Brackish Taste Modifying Effect: 3.0
[9]; 0.01 ppm, sodium L-glutamate 1 %
  Saltiness Modifying Effect: 3.6
[9]; 0.01 ppm, sodium L-glutamate 3 %
  Saltiness Modifying Effect: 3.8
[9]; 0.01 ppm, sodium L-glutamate 5 %
  Saltiness Modifying Effect: 3.4
[9]; 0.01 ppm, sodium L-glutamate 10 %
  Saltiness Modifying Effect: 3.0
[9]; 0.10 ppm, Salt 1 %
  Brackish Taste Modifying Effect: 4.0
[9]; 0.10 ppm, Salt 3 %
  Brackish Taste Modifying Effect: 3.8
[9]; 0.10 ppm, Salt 5 %
  Brackish Taste Modifying Effect: 3.6
[9]; 0.10 ppm, Salt 10 %
  Brackish Taste Modifying Effect: 3.4
[9]; 0.10 ppm, sodium L-glutamate 1 %
  Saltiness Modifying Effect: 4.0
[9]; 0.10 ppm, sodium L-glutamate 3 %
  Saltiness Modifying Effect: 3.8
[9]; 0.10 ppm, sodium L-glutamate 5 %
  Saltiness Modifying Effect: 3.6
[9]; 0.10 ppm, sodium L-glutamate 10 %
  Saltiness Modifying Effect: 3.4
[9]; 1.00 ppm, Salt 1 %
  Brackish Taste Modifying Effect: 4.4
[9]; 1.00 ppm, Salt 3 %
  Brackish Taste Modifying Effect: 4.0
[9]; 1.00 ppm, Salt 5 %
  Brackish Taste Modifying Effect: 4.0
[9]; 1.00 ppm, Salt 10 %
  Brackish Taste Modifying Effect: 3.8
[9]; 1.00 ppm, sodium L-glutamate 1 %
  Saltiness Modifying Effect: 4.4
[9]; 1.00 ppm, sodium L-glutamate 3 %
  Saltiness Modifying Effect: 4.0
[9]; 1.00 ppm, sodium L-glutamate 5 %
  Saltiness Modifying Effect: 4.0
[9]; 1.00 ppm, sodium L-glutamate 10 %
  Saltiness Modifying Effect: 3.8

## COc1ccc(-c2cc(=O)c3c(OC)c(OC)c(OC)c(OC)c3o2)cc1OC [Compound 2, 3',4',5,6,7,8-hexamethoxyflavone]
[1]
  Value of enhancing the sourness Ascending system: 118
  Value of enhancing the sourness Descending system: 123
[10]
  the sweetness and the savor, as sensed by all the panellers: better than that of the control
